Patent publication US5246935A, “Piperazinyl derivatives and methods of treating central nervous system ailments relating to the 5-HT2 receptor system” (Novo Nordisk A/S, priority 1990, dated 1993)
Where a name gives a salt, the structure may show the parent alone.

Key:
5HT1A receptor = target: T1, 5HT1A receptor (Rattus norvegicus, UniProt P19327); test: In-Vitro inhibition of 5HT1A receptor binding (3H-8-OH-DPAT); design: species or system rat (male Wistar); conditions: 3H-8-OH-DPAT 1 nM, rat frontal cortex and hippocampus, 37° C., 10 min
T1 sequence (P19327 1-422): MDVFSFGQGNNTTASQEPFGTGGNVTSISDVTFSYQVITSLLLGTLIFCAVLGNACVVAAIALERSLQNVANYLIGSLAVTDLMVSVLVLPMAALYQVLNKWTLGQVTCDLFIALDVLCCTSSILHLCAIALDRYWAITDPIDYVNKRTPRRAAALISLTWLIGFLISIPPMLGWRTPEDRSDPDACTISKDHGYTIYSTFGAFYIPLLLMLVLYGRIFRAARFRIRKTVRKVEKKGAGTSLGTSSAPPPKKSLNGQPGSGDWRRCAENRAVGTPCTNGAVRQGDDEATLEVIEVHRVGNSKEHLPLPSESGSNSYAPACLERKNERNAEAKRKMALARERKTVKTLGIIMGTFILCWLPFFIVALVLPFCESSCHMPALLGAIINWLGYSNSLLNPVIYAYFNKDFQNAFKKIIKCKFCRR
Method: In-Vitro inhibition of 5HT1A receptor binding
(§1) Radioactive-labelled ligand ^3 H-80H-DPAT is incubated with isolated cell-membrane fragments at 37° C. for a given period of time. Following completed incubation, the incubate is filtered through GF/F filters which are rinsed after filtration to remove unspecifically adhered radioactivity. As opposed to low-molecular compounds, membrane fragments are not rinsed through the filters, the radioactivity bound to the filters indicates the amount of ligand bound specifically as well as nonspecifically to the membranes.
Male Wistar rats, 150-200 g are decapitated, and frontal cortex (approx. 200 mg) and hippocampus (approx. 70 mg) homogenized in 2×10 ml ice-cold DPAT buffer for 20 sec. applying polytron kinematica setting 6. Centrifuged at 20,000 rpm for 10 min. at 4° C. The pellet is transferred to 2×10 ml ice-cold DPAT buffer, homogenized for 20 sec. and preincubated for 10 min. at 37° C. Centrifuged at 20,000 rpm for 10 min. at 4° C. Final pellet added to 125×vol. of same buffer with 10 μM paragylin added (ex. 270 mg tissue in 33.75 ml DPAT buffer containing paragylin). Prepared fresh every day. Use within 30 minutes.
1,250 μl tissue 25 μl ^3 H-80H-DPAT (1 nM) 25 μl test substance/H2 O/blind serotonin (10 μM)
Incubation at 37° C. for 10 min.--at 10 sec. intervals. To the tubes is added 10 ml ice-cold 0.9% NaCl. Filtration through GF/F filters (use gloves). This procedure is repeated. Filters are placed in counting vials and 4 ml optiflow added (prepare in fume cupboard, use gloves). Counted at window 0-19 of the beta- counter (Pachard). Note that receptor box and lid are rinsed thoroughly in H2 O after use to avoid contamination. Further the analytical site is cleaned carefully every day.
Dissolved in H2 O, EtOH, MeOH or DMSO and further diluted in H2 O. The DPAT binding will stand concentrations of up to approx. 5% of these solvents without affecting the binding. Most stock solutions are stable at 4° C. Attention should, however, be paid to any precipitation, change in colour etc. Test-substance dilutions are always prepared fresh every day. When weighing out test substances, it is attempted to weigh out approx. 1 mg of substance. Less than 0.8 mg must never be weighed out and only infrequently more than 2 mg (for economy reasons) dependent, however on conc./assay.

Dopamine D2 receptor = Dopamine D2 receptor (Rattus norvegicus, UniProt P61169); test: In-Vitro Inhibition of Dopamine D2 Receptor Binding (3H-Spiroperidol); design: species or system rat (male Wistar); conditions: 3H-Spiroperidol 0.05 nM, rat striatum, 37° C., 20 min
Method: In-Vitro Inhibition of Dopamine D2 Receptor Binding,
as §1, with “H-Spiroperidol” for “H-80H-DPAT”, “GF/B” for “GF/F”, “following” for “after”, “low- molecular” for “low-molecular”, “is indicative of” for “indicates”
The procedure is performed in ice bath. Polytron kinematica is rinsed with milli-Q-H2 O before and after use. Male Wistar rats, 150-200 g are decapitated, striatum is removed quickly and weighed (approx. 50 mg). Striatum is transferred to a centrifuging vial containing 10 ml ice-cold D2 buffer. Homogenization is performed applying polytron kinematica (homogenizer) setting 6 for 20 sec. The homogenizer is rinsed with 10 ml D2 buffer in another centrifuging vial. The 10 ml rinsing buffer is added to the tissue vial. Centrifugation at 18,000 rpm for 10 min. at 4° C. Final pellet is transferred to 1,000×vol. of same buffer. (Ex. 50 mg striatum in 50 ml D2 buffer). Can be stored at 0° C. for at least 4 hours. Note that the tissue must homogeneous (uniform) before use. If not, brief homogenization is performed.
2,500 μl tissue (homogeneous)
25 μl ^3 H-Spiroperidol (0.05 nM)
25 μl test substance/H2 O/blind (Domperidone 0.2 μM)
Incubation for 20 min. at 37° C.-10 min. on ice bath.
10 ml ice-cold 0.9% NaCl is added to the tubes and filtered through GF/B filters (use gloves). This procedure is repeated. The filters are placed in counting vials and 4 ml opti-flour is added (perform in fume cupboard, use gloves). Counting is performed at window 0-19 of the beta-counter (Pachard). Note that receptor box and lid are rinsed thoroughly in H2 O after use to avoid contamination. Further, the analytical site is cleaned carefully every day after use.
Dissolved in H2 O, EtOH, MeOH or DMSO and further diluted in H2 O. The D2 binding will stand concentrations of up to approx. 20% of these solvents without affecting the binding. Most stock solutions are stable at 4° C., attention is, however, paid to any precipitation, change in colour etc. Test-substance dilutions are always made fresh every day. When weighing out test substances, it is attempted to weigh out approx. 1 mg of substance. Less than 0.8 mg must never be weighed out and only infrequently more than 2 mg (for economy reasons), dependent, however, on conc./assay.

Chain of Dopamine D2 receptor (P61169 whole entry): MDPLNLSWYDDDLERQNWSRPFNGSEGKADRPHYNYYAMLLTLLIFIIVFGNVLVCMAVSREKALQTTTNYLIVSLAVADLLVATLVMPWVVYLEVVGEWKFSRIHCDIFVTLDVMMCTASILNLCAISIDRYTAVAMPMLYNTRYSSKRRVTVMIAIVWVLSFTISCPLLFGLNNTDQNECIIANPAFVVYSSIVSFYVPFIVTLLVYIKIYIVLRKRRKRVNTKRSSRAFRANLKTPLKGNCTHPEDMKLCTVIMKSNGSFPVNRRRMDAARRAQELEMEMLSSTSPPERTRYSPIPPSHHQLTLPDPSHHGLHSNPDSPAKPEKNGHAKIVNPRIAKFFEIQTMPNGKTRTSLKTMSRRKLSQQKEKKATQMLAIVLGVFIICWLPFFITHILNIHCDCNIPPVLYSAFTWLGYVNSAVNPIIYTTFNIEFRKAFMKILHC

| SMILES | IC50 (5HT1A receptor) [µM] | IC50 (Dopamine D2 receptor) [µM] |
| --- | --- | --- |
| COc1cc(NC(=O)OCCCN2CCN(c3ccccc3Cl)CC2)cc(OC)c1OC.Cl [Example 3, 4-(2-Chlorophenyl)-1-[3-(3,4,5-trimethoxyphenylcarbamoyloxy)propyl]piperazine, hydrochloride] | > 0.3 | 0.12 |
| COc1cc(NC(=O)OCCCN2CCN(c3ccc(F)cc3)CC2)cc(OC)c1OC [Example 8, 4-(4-Fluorophenyl)-1-[3-(3,4,5-trimethoxyphenylcarbamoyloxy)propyl]piperazine, hydrochloride] | > 1 | 0.72 |
| O=C(Nc1ccc2ncsc2c1)OCCCN1CCN(c2ccc(Cl)cc2)CC1 [Example 19, 4-(4-Chlorophenyl)-1-[3-(6-benzothiazolylcarbamoyloxy)propyl]piperazine, hydrochloride] | > 1 | 0.15 |
| COc1ccc2cccc(N3CCN(CCCOC(=O)Nc4ccc5c(c4)OCO5)CC3)c2c1 [Example 34, 1-(7-Methoxy-1-naphthyl)-4-[3-(3,4-methylenedioxyphenylcarbamoyloxy)propyl]piperazine, HCl] | 0.0016 | 0.0043 |
